# Source: US8354387B2, “Methods and compositions for delivering siRNA into mammalian cells” (Centre National de la Recherche Scientifique, priority 2004, dated 2013)
# What was measured:
# [1] = system: human breast cancer cell line MCF-7; test: Proliferation of MCF-7 cancer cells; format: cell-based; settings: controls, MCF-7, 8 days
# Method: FIG. 7: Cyclin-B1 siRNA inhibits tumour growth. Exponentially MCF-7 growing cells (1-3 10^4) were incubated with different concentrations (10 nM, 50 nM, 100 nM) of siRNA or mismatched siRNA complexed or not with MPG (molecular ratio 1:10) and cell proliferation was assessed 8 days post incubation.
# Cell culture, MPG mediated transfection. Adherent fibroblastic Hs68 (ATCC no CRL-1635), 293 (ATCC no CRL-1573), HeLa (ATCC no CCL-2) and MCF-7 (ATCC no HTB-22) cell lines were cultured in Dulbecco's Modified Eagle's Medium supplemented with […] glutamine, 1% antibiotics (streptomycin 10,000 μg/ml, penicillin, 10,000 IU/ml) and 10% (w/v) fetal calf serum (FCS), at 37° C. in a humidified atmosphere containing 5% CO2. For MPG-mediated delivery of siRNA, complexes were formed by incubation of different concentrations of siRNA from 10 nM to 1 μM with MPG at a molecular ratio of 1:10, respectively, in 500 μl of DMEM for 30 min at 37° C. Cells grown to 40 to 60% confluence were then overlaid with preformed complexes. After 30 min incubation at 37° C., 1 ml of fresh DMEM supplemented with 10% fetal calf serum was added directly to the cells, without removing the overlay of siRNA/MPG complexes, and cells were returned to the incubator. Different concentrations of siRNA or phosphorothioate oligonucleotide were transfected with cationic lipids, Lipofectamine or Oligofectamine (Invitrogen, Carlsbad, US), according to the guidelines of the manufacturer.
# As delivery of siRNA directed against cyclin B1 promotes efficient downregulation of both cyclin B1 mRNA and protein levels, it was looked for to what extent this might affect proliferation of cancer cells. The effect of siRNA was investigated on the human breast cancer cell line MCF-7. Exponentially growing cells (1-3 10^4) were incubated with different concentrations (10 nM, 50 nM, 100 nM) of siRNA or mismatched siRNA complexed or not with MPG (molecular ratio 1:10) and cell proliferation was assessed 8 days post incubation (FIG. 7).
# [2] = system: 15PC3 cells or A549 cells (human bronchoalveolar carcinoma) tumors; test: Tumour growth after intratumoral injection in Swiss nude mice; format: in vivo; settings: 20 days after injection
# Method: FIG. 8: Cyclin-B1 siRNA inhibits tumour growth. Mice were infected subcutaneously with 15PC3 cells (ATCC no CRL-1435). One week later, MPG/siRNA complexes were injected directly into the tumour, at different concentrations (1 μg, 5 μg, 10 μg, in 50 μl of PBS).
# Cyclin B1 siRNA inhibits tumor growth: In vivo injections and tumors analysis. Five weeks old female Swiss nude nice were injected subcutaneously with 2×10^7 15PC3 cells or A549 cells (n^o ATCC CCL-185) (human bronchoalveolar carcinoma). When tumors reached a mean volume of 50 to 100 mm^3, (a week later), mice were injected intra-tumorally or sub-tumorally with 50 μl of PBS containing anti cyclin B1 siRNA (1, 5, 10 μg) or scrambled siRNA (50 μg) complexed with MPG or siRNA (50 μg). 50 μl of PBS was used as a control. Tumor volume was measured with calipers every two days. A second injection was performed after 10 days and tumor size was measured after 20 days.
# As delivery of siRNA directed against cyclin B1 blocked proliferation of cancer cells, the role of siRNA/MPG formulation to block tumor growth in vivo. The effect of the cyclin B1 siRNA was investigated on tumor animal model (FIG. 8), using Swiss nude nice, injected subcutaneously with 2×10^7 15PC3 cells or A549 cells (human bronchoalveolar carcinoma). Different MPG/siRNA complexed were injected intratumorally and monitoring tumor volumes followed the effect of siRNA.
# mammalian cells = settings: single- and double-stranded oligonucleotides; cited from earlier work
# [3] = system: single- and double-stranded oligonucleotides (DNA); settings: cited from earlier work
sequence,measurement,setting,value
"GALFLGFLGAAGSTMGAWSQPKKKRKV (carrier peptide) [MPG, bipartite amphipathic peptide derived from fusion peptide domain of HIV-1 gp41 and NLS of SV40 large T antigen]",effect on cell proliferation,[1],"neither free siRNA or scrambled molecules, or the peptide carrier alone affected cell proliferation"
same,tumor size increase,[2],2.5 fold
same,time to deliver oligonucleotides into mammalian cells,mammalian cells,< 1 h
same,affinity for single-stranded relative to double-stranded oligonucleotides,[3],at least 2 fold
